This is an account of results in PubChem BioAssay (NCI).

Assay in all cases: NCI tumour cell line growth inhibition, 48 h
The subject of assay [1] is 786-0 renal.
For assay [2], the system named is A498 renal.
In assay [3] the test system is ACHN renal.
Assay [4] deals with CAKI-1 renal.
Assay [5] has as its system COLO 205 colon.
Assay [6] has as its system HOP-62 NSCLC.
The test system of assay [7] is HOP-92 NSCLC.
Assay [8] relates to IGROV1 ovarian.
Assay [9] has as its system LOX IMVI melanoma.
The test system of assay [10] is MDA-MB-231 breast.
For assay [11], the system named is MOLT-4 leukemia.
Assay [12] deals with NCI-H226 lung.
For assay [13], the system named is OVCAR-5 ovarian.
For assay [14], the system named is RPMI-8226 leukemia.
The test system of assay [15] is SK-MEL-5 melanoma.
In assay [16] the test system is U251 CNS.
Assay [17] relates to MALME-3M melanoma.

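Each compound was tested at five concentrations against cells in 96-well plates for 48 hours. Definition used: TGI = concentration required for complete inhibition of growth.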 Bounds are passed on as bounds.

Regarding `CCC(=O)NI1OC(=O)c2ccccc21`, the TGI in [1] is more than 100 µM; in assay [2], more than 100 µM; in assay [3] it was more than 100 µM; in [4] it was 55.2 µM; in [5], more than 100 µM; in assay [6], more than 100 µM. Further, the TGI in assay [7], in [8], in [9], in [10], in assay [11] and in assay [12] was more than 100 µM throughout. For the same molecule, the TGI in assay [13], in assay [14], in [15] and in assay [16] was more than 100 µM in each case.

As for `C=C1[C@H]2O[C@H]2[C@@H](OC(C)=O)[C@@]2(C)[C@@H](OC(C)=O)C[C@@H](OC(=O)CCC)[C@@](C)(O)[C@@H]2[C@@H](OC(C)=O)[C@]2(O)[C@@H](C)C(=O)O[C@H]2[C@H]1Cl`, the TGI in assay [1], in [2], in assay [3], in assay [4], in assay [5] and in assay [6] was more than 100 µM throughout. The TGI in [7] was more than 100 µM; in [17] it was more than 100 µM; in [10] it was more than 100 µM; in assay [11], more than 100 µM; in assay [12] it was 0.818 µM; in [13], more than 100 µM. The TGI in assay [14], in [15] and in assay [16] was more than 100 µM each time.

In the case of `C[C@@H](CC(=O)O)OC1OC(COC(=O)C(C)(C)C)C(OC(=O)C(C)(C)C)C(OC(=O)C(C)(C)C)C1OC(=O)C(C)(C)C` (some centres not stated), the TGI is more than 100 µM in assay [1]; more than 100 µM in assay [2]; 64.4 µM in assay [3]; more than 100 µM in assay [4]; more than 100 µM in assay [5]; more than 100 µM in assay [6]. The TGI in assay [7] was more than 100 µM; in assay [8] it was more than 100 µM; in assay [9] it was more than 100 µM; in [10], more than 100 µM; in [11], 81.3 µM; in assay [12], more than 100 µM. In addition, the TGI is more than 100 µM in assay [13], 71.8 µM in [14], 98.4 µM in assay [15] and more than 100 µM in [16].

`CC(=O)OC1OC(c2ccoc2)C[C@@]12C1CCC3O[C@]3(C)[C@]1(C)[C@H](OC(C)=O)[C@H](OC(C)=O)[C@H]2C` (some centres not stated): the TGI in assay [1], in assay [2], in assay [3], in assay [4], in assay [5] and in assay [6] was more than 37.5 µM throughout. The TGI in [7], in assay [8], in [9], in assay [17], in assay [10] and in assay [11] was more than 37.5 µM throughout. Also, the TGI in [12], in [13], in assay [15] and in assay [16] was more than 37.5 µM each time.

Consider `CO/N=C(/C)c1cccc(Nc2nc3ccc(Cl)cc3c3[nH]c4ccccc4c23)c1`, for which the TGI in assay [1] was found to be 20.5 µM; in [2], 14.2 µM; in assay [3], 13.5 µM; in assay [4] it was 24.3 µM; in assay [5] it was 19.9 µM; in assay [6] it was 24.4 µM. For the same molecule, the TGI in assay [7] came out at 21 µM; in assay [8], 29.4 µM; in [9] it was 26 µM; in assay [10], 27.8 µM; in assay [11] it was 7.91 µM; in assay [12], 27.9 µM. For the same molecule, the TGI in [13] is 23.7 µM; in [14], 17 µM; in assay [15] it was 16.9 µM; in assay [16], 29.1 µM.

For `COCCOC(=O)NCn1cc(-c2ccccc2)nn1`, the TGI in [1], in assay [3], in assay [4], in assay [5], in assay [6] and in [7] was more than 100 µM throughout. For the same molecule, the TGI in [8], in assay [9], in [17], in assay [10], in assay [11] and in assay [12] was more than 100 µM in each case. The TGI in [13], in assay [14], in assay [15] and in assay [16] was more than 100 µM throughout.

Take `O=C1NC(N2CCCC(CO)C2)=N/C1=C\c1ccccc1` (configuration not stated): the TGI in assay [1], in [3], in assay [4], in [5], in assay [6] and in [7] was more than 100 µM each time. Further, the TGI in assay [8], in [9], in [17], in assay [10], in assay [11] and in assay [12] was more than 100 µM throughout. Further, the TGI in assay [13], in assay [14], in [15] and in assay [16] was more than 100 µM each time.

On to `CC[C@H](C)C1=C(OC(C)=O)[N@+]2([O-])Oc3ccc(-c4c(O)c(O)c(-c5ccc(OC(C)=O)cc5)c(OC(C)=O)c4OC(C)=O)cc3O[C@]2([C@@H](C)CC)C(=O)N1O`, for which the TGI is 43.2 µM in assay [1]; more than 50 µM in [2]; more than 50 µM in assay [3]; more than 50 µM in assay [4]; more than 50 µM in assay [5]; more than 50 µM in [6]. The TGI in assay [7] was 23 µM; in assay [8] it was 44.7 µM; in assay [9], more than 50 µM; in assay [17] it was 46.6 µM; in assay [10], more than 50 µM; in [11], more than 50 µM. For the same molecule, the TGI was more than 50 µM in [13], 25.5 µM in assay [14], more than 50 µM in assay [15] and more than 50 µM in assay [16].
